The test system of the experiment is CSM14.1 cells. Kind of experiment: Primary HTS assay: ATP content (ATPlite) of undifferentiated CSM14.1 cells challenged with thapsigargin. The experiment is classed as cell-based, rat. As to conditions: thapsigargin-induced death of undifferentiated CSM14.1, ATP content. The text has this:
For convenience, and because transient reductions in temperature that might be associated with large screening experiments could restore Large T activity, we elected to develop our HTS using undifferentiated CSM14.1 cells, with the plan to then confirm hits using differentiated cells. For monitoring cell death, we used a commercially available bioluminescence reagent that determines intracellular ATP content, without requirement for complicated cell processing steps (ATPlite, Perkin Elmer). Thus, ATP was used as a surrogate indicator of cell survival for the primary assay.
Undifferentiated or differentiated CSM14.1 cells were plated at a density of 3,000 cells/well in 40 μL DMEM medium (containing 10% serum, 1 mM L-glutamine, and antibiotics) in 96 well flat-bottom microtiter plates composed of polystrene (Greiner Bio One, polystyrene, white wall, flat bottom, lumitrac, high binding). After overnight incubation at 32° C., DMSO (0.5% v/v) or 100 uM Salubrinal (Sal) in DMSO was delivered. After 2 hrs, 5 uL of a stock solution of 150 uM TG in DMEM medium containing 0.75% (v:v) DMSO to achieve a final concentration of approximately 15 uM. After culturing for 24 hrs, cellular ATP content was measured by addition of 20 uL per well of ATPlite solution (Perkin-Elmer), and then the plates were incubated for three minutes at room temperature, before reading with a Microplate Luminometer (BD Pharmingen Moonlight model 3096).
To determine the reproducibility of the ATP content assay, we prepared a 96-well plate in which half the wells received TG plus DMSO (assay minimum) and half received TG plus Salubrinal (assay maximum), then performed the ATP content studies using undifferentiated CSM14.1 cells (FIG. 6). CSM14.1 cells were cultured overnight at 3,000 cells per well in 96-well flat-bottom plates, then either DMSO (0.5% final concentration) or Salubrinal (100 μM) in DMSO (0.5% final concentration) was added to half the well (48 each). After two hrs, TG was added to all wells (15 μM final). Cells were cultured for 24 hrs, then the ATP content was measured using the ATPlite luminogenic assay. We then adapted this assay to the high-throughput environment, using a Biomex™ FX liquid handler for automated dispensing of assay components into microwells of 96-well plates. First, undifferentiated CSM14.1 cells were grown at 32° C. in DMEM medium supplemented with 10% fetal bovine serum (FBS), 1% penicillin/streptomycin, and 1% L-glutamine in 150 mm×25 mm polystyrene culture dishes to produce approximately 3×10^6 cells. Second, CSM14.1 cells were recovered from cultures by trypsinization when at 80-90% confluence, and suspended at 7.5×10^4 cells/mL in DMEM medium containing 2% FBS, 1 mM L-glutamine, and antibiotics 100 IU penicillin 100 μg/ml streptomycin. Third, the cell suspension was then delivered at 40 μL per well of 96-well plastic microtiter plates (Greiner Bio One, polystyrene, white wall, flat bottom, lumitrac, high binding, cat #655074), and the plates were cultured overnight at 32° C. in a humidified atmosphere in 95% air: 5% CO2. Fourth, using the automated liquid handler, 5 μL of test compounds in 10% DMSO were added to wells in columns 2-11 of the 96-well plates (leaving columns 1 and 12 intact) to achieve an approximate final concentration of 15 μg/mL test compound and a final concentration of 1% DMSO. Fifth, 5 μL of 1 mM Salubrinal in a solution of 10% DMSO:90% DMEM was added to wells of column 1/rows A-D of each plate, while 5 μL of 10% DMSO:90% DMEM solution was added to wells corresponding to column 1/rows E-H and to all wells in column 12. Sixth, the plates were returned to culture.
In general terms: Cellular ATP, detected with luciferase, serves as a proxy for viable cell number.

Setting [1] is: Rattus norvegicus, one value given, read-out: IC50.
The mark [2] stands for this setting: one value given, read-out: IC50.
Setting [3] is: first assay, read-out: IC50 (μM), first value.
Setting [4] is: second assay (value in bold), read-out: IC50 (μM), value from a second assay.

Molecules are shown by their SMILES. Like-named read-outs stand apart in the source and are kept apart here. Bounds are passed on as bounds.

Data on 37 molecules can be found in patent US20080293699A1, “Inhibitors of thapsigargin-induced cell death” (priority 2007, published 2008).

`COc1ccc(C2CC(=O)C3=C(C2)Nc2ccccc2NC3c2ccc(O)cc2)cc1` (centres unmarked) [Compound 6045744, 11-(4-hydroxyphenyl)-3-(4-methoxyphenyl)-2,3,4,5,10,11-hexahydro-1H-dibenzo[b,e][1,4]diazepin-1-one]: the IC50 – broadly, the concentration that gives 50% inhibition – under setting [1] is over 200 µM.

In the case of `CCCCOc1ccccc1C1Nc2ccccc2NC2=C1C(=O)CC(c1ccccc1)C2` (centres unmarked) [Compound 6066511], the IC50 under setting [2] came out at 19.2 ± 2.16 µM.

Regarding `O=C(C(c1ccccc1)c1ccccc1)N1CCN(Cc2ccccc2[N+](=O)[O-])CC1` [Compound 5948365], the IC50 under setting [2] turned out to be 19.5 µM.

Turning to `CCOc1cc(C2Nc3ccccc3NC3=C2C(=O)CC(c2ccc(OC)cc2)C3)cc(Br)c1O` (centres unmarked) [Compound 6048306], the IC50 under setting [2] was 18.2 ± 1.93 µM.

For the molecule `COc1ccc(C2CC(=O)C3=C(C2)Nc2ccccc2NC3c2ccc(C(C)C)cc2)cc1` (centres unmarked) [Compound 6049861], the IC50 under setting [2] was found to be 10.3 ± 1.28 µM.

For `COc1ccc(Br)cc1CN1CCN(C(=O)c2ccc(-c3ccccc3)cc2)CC1` [Compound 5990041], the IC50 reads like this: under setting [3], 12.8 ± 0.318 µM; under setting [4], 14.2 ± 1.2 µM.

For the molecule `COc1ccc(CN2CCN(C(=O)c3ccc(-c4ccccc4)cc3)CC2)c(OC)c1` [Compound 5955734], the IC50 under setting [3] was 23.8 µM and the half-maximal inhibitory concentration (IC50) under setting [4] was 16.5 ± 1.47 µM.

As for `COc1ccc(C2CC(=O)C3=C(C2)Nc2ccccc2NC3c2ccccc2C)cc1OC` (centres unmarked) [Compound 6369841, 3-(3,4-dimethoxyphenyl)-11-(2-methylphenyl)-2,3,4,5,10,11-hexahydro-1H-dibenzo[b,e][1,4]diazepin-1-one], under setting [1], the IC50 turned out to be 36.5 ± 2.19 µM.

Take `COc1ccc(C2CC(=O)C3=C(C2)Nc2ccccc2NC3c2c(F)cccc2F)cc1` (centres unmarked) [Compound 6241186]: the IC50 under setting [2] was 25 ± 0.175 µM.

Turning to `COc1ccccc1CN1CCN(C(=O)c2cc(OC)c(OC)c(OC)c2)CC1` [Compound 5397316], the IC50 under setting [2] is over 200 µM.

With `CSc1ccc(C2Nc3ccccc3NC3=C2C(=O)CC(c2ccccc2)C3)cc1` (centres unmarked) [Compound 5963958], the IC50 turned out to be 18.6 ± 9.14 µM under setting [3], 12.5 ± 0.179 µM under setting [2] and 12.5 ± 0.179 µM under setting [4].

`COc1ccc(C2CC(=O)C3=C(C2)Nc2ccccc2NC3c2ccc(NC(C)=O)cc2)cc1` (centres unmarked) [Compound 6067345]: the IC50 under setting [2] was over 100 µM.

Take `COc1ccc(C2CC(=O)C3=C(C2)Nc2ccccc2NC3c2cccc(O)c2)cc1OC` (centres unmarked) [Compound 3192-5300]: the IC50 under setting [2] was determined as 53.5 ± 3.45 µM.

As to `COc1ccccc1CN1CCN(C(=O)c2ccc(-c3ccccc3)cc2)CC1` [Compound 5996087, 1-(4-biphenylylcarbonyl)-4-(2-methoxybenzyl)piperazine], the 50% inhibitory concentration (IC50) under setting [1] was 25 to 50 µM.

Turning to `CCOc1cccc(C2Nc3ccccc3NC3=C2C(=O)CC(c2ccc(OC)cc2)C3)c1` (centres unmarked) [Compound 6044673], the IC50 by setting is: under setting [3], 20.2 ± 0.781 µM; under setting [2], 21.2 ± 0.362 µM; under setting [4], 21.2 ± 0.362 µM.

Take `COc1ccc(C2CC(=O)C3=C(C2)Nc2ccccc2NC3c2ccccc2Cl)cc1OC` (centres unmarked) [Compound 6076307, 11-(2-chlorophenyl)-3-(3,4-dimethoxyphenyl)-2,3,4,5,10,11-hexahydro-1H-dibenzo[b,e][1,4]diazepin-1-one]: under setting [1], the IC50 came to 41.7 ± 0.916 µM.

`COc1ccc(C2CC(=O)C3=C(C2)Nc2ccccc2NC3c2cccc(C(F)(F)F)c2)cc1OC` (centres unmarked) [Compound 6238475]: the IC50 came to 18.81 ± 0.157 µM under setting [3], 12.5 ± 0.17 µM under setting [2] and 12.5 ± 0.17 µM under setting [4].

As to `O=C1CC(c2ccccc2)CC2=C1C(c1c(F)cccc1Cl)Nc1ccccc1N2` (centres unmarked) [Compound 6237973], the IC50 under setting [3] is 22.6 ± 0.68 µM, the IC50 under setting [2] was 19.49 ± 0.169 µM and the IC50 under setting [4] came to 19.49 ± 0.169 µM.

`CCN(CC)c1ccc(C2=Nc3ccccc3NC3=C2C(=O)CC(c2ccc(Cl)cc2)C3)cc1` (racemic) [MLS-0292126]: the IC50 under setting [2] stood at 16.5 µM.

In the case of `CCOc1ccc(CN2CCN(C(=O)c3ccc(-c4ccccc4)cc3)CC2)cc1` [Compound 5990076, 1-(4-biphenylylcarbonyl)-4-(4-ethoxybenzyl)piperazine], the IC50 under setting [1] is over 200 µM.

As to `COc1ccc(C2CC(=O)C3=C(C2)Nc2ccccc2NC3c2cccc(Cl)c2)cc1` (centres unmarked) [Compound 5969327, 11-(3-chlorophenyl)-3-(4-methoxyphenyl)-2,3,4,5,10,11-hexahydro-1H-dibenzo[b,e][1,4]diazepin-1-one], the IC50 under setting [1] was 21.7 ± 1.07 µM.

In the case of `COc1ccc(C2Nc3ccccc3NC3=C2C(=O)CC(c2ccc(Cl)cc2)C3)cc1` (centres unmarked) [Compound 6049070, 3-(4-chlorophenyl)-11-(4-methoxyphenyl)-2,3,4,5,10,11-hexahydro-1H-dibenzo[b,e][1,4]diazepin-1-one], the IC50 under setting [1] is 12.5 ± 0.13 µM.

With `COc1ccc(C2CC(=O)C3=C(C2)Nc2ccccc2NC3c2ccccc2[N+](=O)[O-])cc1OC` (centres unmarked) [Compound 6240043], under setting [2], the IC50 is 39.6 ± 1.99 µM.

Consider `COc1ccc(C2CC(=O)C3=C(C2)Nc2ccccc2NC3c2ccc(-c3ccccc3)cc2)cc1OC` (centres unmarked) [Compound 6239945, 11-(4-biphenylyl)-3-(3,4-dimethoxyphenyl)-2,3,4,5,10,11-hexahydro-1H-dibenzo[b,e][1,4]diazepin-1-one], for which the IC50 under setting [1] was determined as 21.8 ± 2.97 µM.

With `Cc1ccc(C2Nc3ccccc3NC3=C2C(=O)CC(c2ccc(Cl)cc2)C3)cc1` (centres unmarked) [Compound 6047795], the IC50 under setting [2] was 11 ± 1.04 µM.

`O=C1CC(c2ccccc2)CC2=C1C(c1cccc3ccccc13)Nc1ccccc1N2` (centres unmarked) [Compound 6366991]: the IC50 under setting [2] was found to be 22.2 ± 2.8 µM.

`CCn1c2ccccc2c2cc(CN3CCN(C(=O)c4ccc([N+](=O)[O-])cc4)CC3)ccc21` [Compound 6034674]: the IC50 reads like this: under setting [3], 15 ± 0.495 µM; under setting [4], 11.5 ± 0.501 µM.

`COc1ccc(C2CC(=O)C3=C(C2)Nc2ccccc2NC3c2ccc(C)cc2)cc1OC` (centres unmarked) [Compound 6105705, 3-(3,4-dimethoxyphenyl)-11-(4-methylphenyl)-2,3,4,5,10,11-hexahydro-1H-dibenzo[b,e][1,4]diazepin-1-one]: the IC50 under setting [1] came to 25 ± 0.169 µM.

Regarding `CCn1c2ccccc2c2cc(CN3CCN(C(=O)c4cccs4)CC3)ccc21` [Compound 5951613], the IC50 reads like this: under setting [3], 16.74 ± 0.158 µM; under setting [4], 12.7 ± 1.11 µM.

For the molecule `CC(C)Oc1ccccc1C1Nc2ccccc2NC2=C1C(=O)CC(c1ccc(Cl)cc1)C2` (centres unmarked) [Compound 6047998], the IC50 under setting [2] was found to be 8.09 ± 0.832 µM.

Regarding `COc1cccc(CN2CCN(C(=O)c3ccc(-c4ccccc4)cc3)CC2)c1OC` [Compound 6035098], the IC50 runs as follows: under setting [3], 19.8 ± 0.721 µM; under setting [4], 16.6 ± 2.03 µM.

In the case of `CCn1c2ccccc2c2cc(CN3CCN(C(=O)c4cc(OC)c(OC)c(OC)c4)CC3)ccc21` [Compound 5397372], the IC50 is, setting by setting: under setting [3], 18.9 ± 0.568 µM; under setting [4], 13.5 ± 2.02 µM.

With `COc1ccc(C2CC(=O)C3=C(C2)Nc2ccccc2NC3c2cccc(Br)c2)cc1OC` (centres unmarked) [Compound 6239538], the IC50 runs as follows: under setting [3], 15.5 ± 0.243 µM; under setting [2], 12.5 ± 0.177 µM; under setting [4], 12.5 ± 0.177 µM.

With `COc1ccc(C2CC(=O)C3=C(C2)Nc2ccccc2NC3c2c(Cl)cccc2Cl)cc1` (centres unmarked) [Compound 6079349], the IC50 under setting [2] amounted to 31.5 ± 2.84 µM.

Regarding `CCOc1ccc(C2CC(=O)C3=C(C2)Nc2ccccc2NC3c2cc(F)ccc2Cl)cc1OC` (centres unmarked) [Compound 5991-0620], the IC50 under setting [2] was over 200 µM.

With `COc1ccc(C2CC(=O)C3=C(C2)Nc2ccccc2NC3c2c(F)cccc2Cl)cc1` (centres unmarked) [Compound 6044487], the 50% inhibitory concentration (IC50) under setting [2] is 15.3 ± 1.51 µM.

With `CCN(CC)c1ccc(C2Nc3ccccc3NC3=C2C(=O)CC(c2ccc(OC)cc2)C3)cc1` (centres unmarked) [Compound 5969590], the IC50 under setting [2] was determined as 11.4 ± 1.49 µM.
